The values that follow come from publication PMC6270778, “Novel Cinnamic Acid Derivatives as Antioxidant and Anticancer Agents: Design, Synthesis and Modeling Studies” (Molecules, 2014).

Data set [1] is described as follows: Determination of RM values by reversed phase TLC (RPTLC). Type of data set: physicochemical. The following applies: CH3OH:H2O:CH3COOH (77:23:0.1), average of at least 10 measurements. The protocol:
Lipophilicity represents a significant physicochemical property for the absorption, distribution, metabolism and excretion of drugs (ADME properties). In this study the experimentally lipophilicity as RM values is measured by the reverse-phase thin layer chromatography (RPTLC), a reliable, fast and convenient method. The obtained values were compared with the corresponding log P values in n-octanol-buffer estimated by ClogP [33, 34]. It is well known that lipophilicity plays an important role at the ADME properties. In the present study additionally, it influences the radical scavenging property (i.e., in an aqueous phase) or the chain-breaking antioxidant activity (i.e., in biological membranes).
Reversed phase TLC (RPTLC) was studied using silica gel plates saturated with 55% (v/v) liquid paraffin in light petroleum ether and methanol/water mixture (77/23, v/v) containing 0.1% of acetic acid was used as a mobile phase. Spots were detected under UV light or by iodine vapours. RM values were determined by the corresponding Rf values (from ten individual measurements) using the equation RM = log [(1/Rf) − 1] [23, 24, 25].

The nature of data set [2]: ABTS+ decolorization assay. The following applies: 0.1 mM. The protocol:
The ABTS^•+ is derived from the oxidation of ABTS by potassium persulfate. It is a decolorization assay. The addition of electron-donating antioxidants leads to ABTS^•+ reduction. The chemistry taking place involves the direct generation of the ABTS^•+ with no involvement of an intermediary radical.
In this assay, ethanol is used for the dilution of the ABTS^+• solution. ABTS is dissolved in water to a 7 mM and reacts with 2.45 mM […] to produce the ABTS radical cation (ABTS^+•) by allowing the mixture to stand in the dark at room temperature for 12–16 h before use. Ten μL of diluted ABTS^+• solution (734 nm) is added to 10 μL of antioxidant compounds or Trolox standards (final concentration 0–0.1 mM) in ethanol and the absorbance is measured at 30 °C exactly 1 min after the initial mixing (Table 3).

For data set [3], the system named is OAW-42 (ovarian). Briefly: SRB cytotoxicity assay, OAW-42. Type of data set: cell-based. The following applies: Homo sapiens, 50% growth inhibition, 48 h exposure. As to the method:
(§1) Human cancer cell lines used as targets were HT-29 (colon), A-549 (lung), OAW-42 (ovarian), MDA-MB-231 (breast), HeLa (immortal cells from cervical cancer). All cells were obtained from the American Type Culture Collection (ATCC). Cells were routinely grown as monolayer cell cultures in T-75 flasks (Costar) in an atmosphere containing 5% CO2 in air and 100% relative humidity at 37 °C and subcultured twice a week, restricting the total number of cell passages below 20. The culture medium used was Dulbecco’s modified Eagle’s medium (DMEM, Gibco, Grand Island, NY, USA) supplemented with 10% fetal bovine serum (Gibco), 2 mM glutamine (Sigma), 100 μg/mL streptomycin and 100 IU/mL penicillin.
(§2) Cell passages were carried out by detaching adherent, logarithmically growing cells after addition of 2–3 mL of a mixture of 0.05% solution of trypsin (Gibco, 1:250) in phosphate-buffered saline (PBS) with 0.02% EDTA and incubation for 3–5 min at 37 °C. For the experiments, cells were plated (100 μL containing 10,000 cells/well) in 96-well flat-bottom microplates microplates (Costar-Corning, Acton, MA 01720, USA) so that untreated cells were in exponential growth phase at the time of cytotoxicity evaluation. Cells were left for 24 h at 37 °C to resume exponential growth and stabilization and afterwards exposed to tested agents for 48 h by the addition of an equal volume (100 μL) of either complete culture medium (control wells), or twice the final drug concentrations diluted in complete culture medium (test wells). Drug cytotoxicity was measured by means of the SRB colorimetric assay estimating the survival fractions (SF) as the percent of control (untreated cells) absorbance. The SRB assay was carried out as previously described and modified by our group. In brief, culture medium was aspirated prior to fixation using a microplate-multiwash device (Tri-Continent Scientific, Inc., Grass Valley, CA, USA) and 50 μL of 10% cold (4 °C) trichloroacetic acid (TCA) were gently added to the wells. Microplates were left for 30 min at 4 °C, washed five times with deionized water and left to dry at room temperature for at least 24 h. Subsequently, 70 μL of 0.4% (w/v) sulforhodamine B (Sigma) in 1% acetic acid solution were added to each well and left at room temperature for 20 min. SRB was removed and the plates were washed five times with 1% acetic acid before air drying. Bound SRB was solubilized with 200 μL of 10 mM unbuffered Tris-base solution and plates were left on a plate shaker for at least 10 min. Absorbance was read in a 96-well plate reader at 492 nm subtracting the background measurement at 620 nm. The test optical density (OD) value was defined as the absorbance of each individual well, minus the blank value (“blank” is the mean optical density of the background control wells, n = 8). Mean values and the coefficient of variation (CV) from six replicate wells were calculated automatically. Results were expressed as the “survival fraction” (SF), as shown below.
(§3) For each tested compound a dose-effect curve was produced. Sextuplicate determinations gave a CV (Standard Deviation/mean %) of much less than 10%, resulting in standard error (SE) which was very low in all cases. The data showing inhibition of cellular growth are expressed as the fraction of cells that remains unaffected (fu) (survival fraction, SF), which is derived from the following equation: fu = ODx/ODc where ODx and ODc represent the test and the control optical density, respectively.
For orientation: In SRB staining, fixed cells bind dye roughly in proportion to their protein.

Data set [4] concerns HeLa (immortal cells from cervical cancer). Briefly: SRB cytotoxicity assay, HeLa. Type of data set: cell-based. The following applies: Homo sapiens, 50% growth inhibition, 48 h exposure. The protocol:
as §1, §2, §3

Values joined by “and” are separate entries in the source; they are usually repeats but may differ in a detail not shown here. Equal values may be shown once. Marks after values point to notes of the source that are not given here.

Broadly, the IC50 is the concentration that inhibits the measured activity by half. A high value points to weaker potency in that assay.

Take `O=C(O)C(=CC(Br)=Cc1ccccc1)c1ccccc1` [Compound 4i, 4-Bromo-2,5-diphenylpenta-2,4-dienoic acid]: the “RM (±SD)” value in data set [1] was 0.566 (0.001) ^e. The “ABTS+· (%) (±SD)” value in data set [2] was 24 ± 0.5%. The results for the half-inhibitory concentration (IC50) in data set [3] and in data set [4] were 174 ± 1.8 µM and 80 ± 0.9 µM, respectively.
For the compound `N#Cc1ccc(C=CC(=O)O)cc1` [Compound 1ii, 3-(4-Cyanophenyl)acrylic acid], in data set [1], the “RM (±SD)” value was −0.972 (0.032) ^e. Moreover, in data set [2], the “ABTS+· (%) (±SD)” value is 47.4% and 47 ± 0.8%. The IC50 in data set [3] and in data set [4] was over 240 µM in each case.
With `O=C(O)C=CC(Br)=Cc1ccccc1` [Compound 4ii, 4-Bromo-5-phenylpenta-2,4-dienoic acid], the “RM (±SD)” value in data set [1] is reported as −0.847 (0.044) ^e. Besides, the “ABTS+· (%) (±SD)” value in data set [2] was determined as 26 ± 0.4%. Also, the IC50 was 63.5 ± 0.8 µM in data set [3] and 30 ± 0.4 µM in data set [4].
In the same order, the values of `N#Cc1ccc(C=C(C(=O)O)c2ccccc2)cc1` [Compound 1i, 3-(4-Cyanophenyl)-2-phenylacrylic acid] are −0.895 (0.004) ^e, 26 ± 0.4%, over 240 µM and over 240 µM.
In the same order, the values of `O=C(O)C=CC=Cc1ccccc1` [Compound 3ii, 5-Phenylpenta-2,4-dienoic acid] are −0.893 (0.002) ^e, 31 ± 1.1%, over 240 µM and over 240 µM.
In the same order, the values of `O=C(O)C(=CC=Cc1ccc([N+](=O)[O-])cc1)c1ccccc1` [Compound 2i, 5-(4-Nitrophenyl)-2-phenylpenta-2,4-dienoic acid] are −0.706 (0.062) ^e, 26 ± 0.5%, 160 ± 1.1 µM and 118 ± 1.4 µM.
`O=C(O)C(=CC=Cc1ccccc1)c1ccccc1` [Compound 3i, 2,5-Diphenylpenta-2,4-dienoic acid]: the “RM (±SD)” value in data set [1] was 0.987 (0.018) ^e. In addition, the “ABTS+· (%) (±SD)” value in data set [2] turned out to be 26 ± 0.8%. Further, the IC50 in data set [3] and in data set [4] was over 240 µM in each case.
For the compound `O=C(O)C=CC=Cc1ccc([N+](=O)[O-])cc1` [Compound 2ii, 5-(4-Nitrophenyl)penta-2,4-dienoic acid], the “RM (±SD)” value in data set [1] was −0.868 (0.019) ^e. Besides, the “ABTS+· (%) (±SD)” value in data set [2] came to 35 ± 0.9%. Moreover, the IC50 in data set [3] is over 240 µM; in data set [4] it was 240 ± 1.6 µM.
